Tests used:
Assay in all cases: relative viability (nuclei count vs DMSO), 5 days (fraction); higher = more cells survive
[1] = compound: CC1=C(N=C(N=C1N)[C@H](CC(=O)N)NC[C@@H](C(=O)N)N)C(=O)N[C@@H]([C@H](C2=CN=CN2)OC3C(C(C(C(O3)CO)O)O)OC4C(C(C(C(O4)CO)O)OC(=O)N)O)C(=O)N[C@H](C)[C@H]([C@H](C)C(=O)N[C@@H]([C@@H](C)O)C(=O)NCCC5=NC(=CS5)C6=NC(=CS6)C(=O)NCCC[S+](C)C)O [Bleomycin] + Nc1ncn([C@H]2C[C@H](O)[C@@H](CO)O2)c(=O)n1 [Decitabine] (partner 2 µM); conditions: main component drawn
How it was run: (§1)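 Lung cancer cell lines in 1536-well plates got either a single drug or a fixed anchor-drug dose together with five library-drug doses (not always all listed) in √10 steps, by pin tool, on the day after seeding. Nuclei were counted after 5 days, and relative viability is the treated-to-vehicle ratio of nuclei counts. Values are medians of duplicate plates.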

[2] = compound: COc1cc([C@@H]2c3cc4c(cc3[C@@H](O[C@@H]3O[C@@H]5CO[C@@H](C)O[C@H]5[C@H](O)[C@H]3O)[C@H]3COC(=O)[C@H]23)OCO4)cc(OC)c1O [Etoposide] + Cc1cc(Nc2cc(N3CCN(C)CC3)nc(Sc3ccc(NC(=O)C4CC4)cc3)n2)n[nH]1 [Tozasertib] (partner 0.1 µM)
How it was run: as §1

[3] = compound: COc1cc([C@@H]2c3cc4c(cc3[C@@H](O[C@@H]3O[C@@H]5CO[C@@H](C)O[C@H]5[C@H](O)[C@H]3O)[C@H]3COC(=O)[C@H]23)OCO4)cc(OC)c1O [Etoposide] + O=C(CCCCCCC(=O)Nc1ccccc1)NO [Vorinostat] (partner 1 µM)
How it was run: as §1

[4] = compound: CC1=C(N=C(N=C1N)[C@H](CC(=O)N)NC[C@@H](C(=O)N)N)C(=O)N[C@@H]([C@H](C2=CN=CN2)OC3C(C(C(C(O3)CO)O)O)OC4C(C(C(C(O4)CO)O)OC(=O)N)O)C(=O)N[C@H](C)[C@H]([C@H](C)C(=O)N[C@@H]([C@@H](C)O)C(=O)NCCC5=NC(=CS5)C6=NC(=CS6)C(=O)NCCC[S+](C)C)O [Bleomycin] + C[C@@H](Oc1cc(-c2cnn(C3CCNCC3)c2)cnc1N)c1c(Cl)ccc(F)c1Cl [Crizotinib] (partner 1 µM); conditions: main component drawn
How it was run: as §1

Row | Cell Line | relative viability ([1]; first compound 0.01 µM) | relative viability ([1]; first compound 0.03162 µM) | relative viability ([1]; first compound 0.1 µM) | relative viability ([1]; first compound 0.3162 µM) | relative viability ([1]; first compound 1 µM) | relative viability ([2]; first compound 0.01 µM) | relative viability ([2]; first compound 0.03162 µM) | relative viability ([2]; first compound 0.1 µM) | relative viability ([2]; first compound 0.3162 µM) | relative viability ([2]; first compound 1 µM) | relative viability ([3]; first compound 0.01 µM) | relative viability ([3]; first compound 0.03162 µM) | relative viability ([3]; first compound 0.1 µM) | relative viability ([3]; first compound 0.3162 µM) | relative viability ([3]; first compound 1 µM) | relative viability ([4]; first compound 0.01 µM) | relative viability ([4]; first compound 0.03162 µM) | relative viability ([4]; first compound 0.1 µM) | relative viability ([4]; first compound 0.3162 µM) | relative viability ([4]; first compound 1 µM)
1 | NCI-H2126 | 0.626 | 0.621 | 0.601 | 0.567 | 0.566 | 0.739 | 0.854 | 0.632 | 0.63 | 0.254 | 0.707 | 0.911 | 0.512 | 0.603 | 0.227 | 0.932 | 1.1 | 0.982 | 0.948 | 0.801
2 | LK-2 | 0.22 | 0.241 | 0.184 | 0.121 | 0.142 | 0.207 | 0.175 | 0.18 | 0.21 | 0.205 | 0.317 | 0.374 | 0.165 | 0.158 | 0.149 | 0.237 | 0.216 | 0.213 | 0.229 | 0.273
3 | NCI-H1437 | 0.472 | 0.527 | 0.518 | 0.428 | 0.377 | 0.433 | 0.4 | 0.429 | 0.293 | 0.318 | 0.871 | 0.877 | 0.804 | 0.435 | 0.396 | 0.803 | 0.811 | 0.736 | 0.476 | 0.382
4 | COR-L23 | 0.378 | 0.407 | 0.287 | 0.188 | 0.147 | 0.189 | 0.236 | 0.262 | 0.145 | 0.109 | 0.48 | 0.487 | 0.352 | 0.214 | 0.13 | 0.444 | 0.317 | 0.226 | 0.0998 | 0.099
5 | ABC-1 | 0.911 | 0.837 | 1.01 | 0.803 | 0.591 | 0.176 | 0.202 | 0.186 | 0.199 | 0.195 | 1.07 | 1.57 | 0.571 | 0.55 | 0.223 | 0.799 | 0.769 | 0.659 | 0.191 | 0.161
6 | SW 900 | 0.377 | 0.406 | 0.334 | 0.234 | 0.244 | 0.459 | 0.666 | 0.55 | 0.341 | 0.224 | 0.413 | 0.468 | 0.408 | 0.295 | 0.167 |  |  |  |  | 
7 | PC-14 | 0.153 | 0.158 | 0.0921 | 0.0512 | 0.0367 | 0.595 | 0.536 | 0.754 | 0.496 | 0.213 | 0.762 | 0.89 | 0.558 | 0.495 | 0.234 | 0.578 | 0.516 | 0.259 | 0.105 | 0.0849
8 | NCI-H1648 | 0.412 | 0.387 | 0.466 | 0.467 | 0.334 |  | 0.359 | 0.416 | 0.282 | 0.28 |  | 0.58 | 0.306 | 0.3 | 0.329 |  |  |  |  | 
9 | A549 | 0.234 | 0.137 | 0.218 | 0.0867 | 0.0646 |  |  |  |  |  |  |  |  |  |  | 0.601 | 0.562 | 0.339 | 0.0813 | 0.0619
10 | A-427 | 0.429 | 0.495 | 0.406 | 0.29 | 0.266 | 0.213 | 0.224 | 0.219 | 0.165 | 0.147 | 0.864 | 0.864 | 0.761 | 0.625 | 0.309 | 0.738 | 0.776 | 0.67 | 0.402 | 0.223
11 | NCI-H1792 | 0.521 | 0.649 | 0.558 | 0.3 | 0.252 |  |  |  |  |  |  |  |  |  |  | 0.886 | 0.971 | 0.675 | 0.312 | 0.258
12 | NCI-H1703 |  |  |  |  |  |  |  |  |  |  |  |  |  |  |  | 0.751 | 0.655 | 0.676 | 0.322 | 0.195
13 | Calu-6 |  |  |  |  |  |  |  |  |  |  |  |  |  |  |  | 0.514 | 0.394 | 0.379 | 0.141 | 0.181
14 | NCI-H2342 | 0.692 | 0.624 | 0.619 | 0.547 | 0.556 | 0.528 | 0.512 | 0.379 | 0.315 | 0.272 | 0.788 | 0.788 | 0.471 | 0.421 | 0.369 |  |  |  |  | 
15 | EBC-1 |  |  |  |  |  |  |  |  |  |  |  |  |  |  |  | 0.204 | 0.193 | 0.2 | 0.198 | 0.151
16 | NCI-H1299 |  |  |  |  |  |  |  |  |  |  |  |  |  |  |  | 0.896 | 0.943 | 0.715 | 0.402 | 0.331
17 | NCI-H522 | 0.736 | 0.777 | 0.608 | 0.405 | 0.399 | 0.589 | 0.554 | 0.539 | 0.59 | 0.516 | 0.934 | 0.981 | 0.774 | 0.841 | 0.834 |  |  |  |  | 
18 | IA-LM |  |  |  |  |  |  |  |  |  |  | 0.701 | 1 | 0.577 | 0.826 | 0.354 | 0.502 | 0.64 | 0.476 | 0.523 | 0.29
19 | NCI-H1793 | 0.483 | 0.472 | 0.37 | 0.175 | 0.246 | 0.324 | 0.311 |  | 0.316 | 0.185 |  | 0.934 | 0.353 | 0.427 | 0.151 |  |  |  |  | 
20 | NCI-H2228 |  |  |  |  |  | 0.287 | 0.191 | 0.247 | 0.169 | 0.117 | 0.577 | 0.668 | 1.07 | 0.272 | 0.142 | 0.393 | 0.362 | 0.488 | 0.318 | 0.327
21 | CAL-12T |  |  |  |  |  | 0.256 | 0.297 | 0.408 | 0.264 | 0.28 | 0.798 | 0.782 | 0.724 | 0.403 | 0.213 | 0.356 | 0.405 | 0.25 | 0.15 | 0.192

— the supplement of paper PMC10307832
